In ChEMBL document CHEMBL4402538, “Mycobacterial tryptophan biosynthesis: A promising target for tuberculosis drug development?” (Bioorg Med Chem Lett, 2019):
≈ marks a conversion by molar mass, not a printed value.

Legend:
[1] = system: Mycobacterium tuberculosis; test: Antimycobacterial activity against Mycobacterium tuberculosis H37Rv infected in C57BL/6 mouse assessed as reduction in colony forming unit at 350 mg/kg, po administered for 8 consecutive days starting from day 1 post infection relative to control; type: functional
[2] = system: Mycobacterium tuberculosis; test: Antitubercular activity against Mycobacterium tuberculosis H37Rv; type: functional
[3] = Cytotoxicity against human HepG2 cells after 48 hrs by CellTiter Glo assay; type: cell-based
[4] = Intrinsic clearance in mouse liver microsomes incubated for 30 mins and measured up to 30 mins by LC-MS/MS analysis; type: ADME, Microsome; conditions: 0.5 h
[5] = system: Mycobacterium tuberculosis; test: Antimycobacterial activity against Mycobacterium tuberculosis H37Rv in presence of tryptophan after 14 days by broth microdilution method; type: functional; conditions: 336 h
Mycobacterium marinum = test: Antimycobacterial activity against Mycobacterium marinum infected in zebra fish embryos assessed as reduction in bacterial growth at 15 to 30 uM incubated for 5 days relative to control; type: functional
[6] = system: Mycobacterium tuberculosis; test: Antimycobacterial activity against wild-type Mycobacterium tuberculosis H37Rv incubated for 2 weeks; type: functional; conditions: 336 h
[7] = system: Mycobacterium tuberculosis; test: Antimycobacterial activity against pan-sensitive Mycobacterium tuberculosis CI-5 incubated for 2 weeks; type: functional; conditions: CI-5, 336 h
[8] = system: Mycobacterium tuberculosis; test: Antimycobacterial activity against pan-sensitive Mycobacterium tuberculosis CDC1551 incubated for 2 weeks; type: functional; conditions: CDC1551, 336 h
[9] = Intrinsic clearance in mouse liver microsomes at 1 uM in presence of NADPH measured up to 60 mins by LC-MS/MS analysis; type: ADME, Microsome; conditions: read-out: CLH
[10] = Cytotoxicity against human HepG2 cells; type: cell-based
[11] = system: Mycobacterium tuberculosis; test: Antimycobacterial activity against pan-sensitive Mycobacterium tuberculosis AS2 incubated for 2 weeks; type: functional; conditions: AS2, 336 h
[12] = system: Mycobacterium tuberculosis; test: Antimycobacterial activity against pan-sensitive Mycobacterium tuberculosis AS4 incubated for 2 weeks; type: functional; conditions: AS4, 336 h
[13] = system: Mycobacterium tuberculosis; test: Antimycobacterial activity against wild-type Mycobacterium tuberculosis H37Rv infected in mouse J774 cells assessed as reduction in bacterial growth incubated for 3 days relative to control; type: functional
[14] = system: Mycobacterium tuberculosis; test: Antimycobacterial activity against pan-sensitive Mycobacterium tuberculosis CI-4 incubated for 2 weeks; type: functional; conditions: CI-4, 336 h
[15] = system: Mycobacterium tuberculosis; test: Antimycobacterial activity against pan-sensitive Mycobacterium tuberculosis CI-11 incubated for 2 weeks; type: functional; conditions: CI-11, 336 h
[16] = system: Mycobacterium tuberculosis; test: Antimycobacterial activity against pan-sensitive Mycobacterium tuberculosis HN-878 incubated for 2 weeks; type: functional; conditions: HN-878, 336 h
[17] = system: Mycobacterium tuberculosis; test: Antitubercular activity against Mycobacterium tuberculosis H37Rv ATCC 27294 after 10 days; type: functional; conditions: H37Rv ATCC 27294, 240 h
[18] = system: Mycobacterium tuberculosis; test: Antitubercular activity against Mycobacterium tuberculosis H37Rv infected in BALB/c mouse assessed as reduction in bacterial load in infected mouse spleen at 100 mg/kg, po administered 6 days per week for 4 weeks relative to control; type: functional
[19] = Oral bioavailability in CD-1 mouse at 100 mg/kg measured up to 24 hrs; type: ADME, organism-based; conditions: in vivo
[20] = Cytotoxicity against human HepG2 cells after 24 hrs by CellTiter 96 AQueous One Solution Cell Proliferation assay; type: cell-based
[21] = system: Mycobacterium tuberculosis; test: Antitubercular activity against Mycobacterium tuberculosis infected in mouse assessed as reduction in bacterial load in infected mouse spleen at 200 mg/kg administered 8 days post infection and measured at 2 week relative to control; type: functional
[22] = system: Mycobacterium tuberculosis; test: Antimycobacterial activity against Mycobacterium tuberculosis in absence of tryptophan by Alamar Blue assay; type: functional
[23] = system: Mycobacterium tuberculosis H37Rv; test: Inhibition of Tryptophan synthase alpha in Mycobacterium tuberculosis H37Rv assessed as bactericidal activity incubated for 4 weeks by agar dilution method
[24] = Inhibition of Mycobacterium tuberculosis Anthranilate phosphoribosyltransferase expressed in Escherichia coli BL21(DE3) pRIL cells using PRPP as substrate in presence of PRAI-InGPS by fluorescence-based assay

With `O=S1(=O)C[C@H](O)[C@@H](N2CCN(c3ccc(F)cc3Cl)CC2)C1` the “log(activity)” value [1] was 1.4, the MIC [2] was 2.25 µM (≈ 0.785 µg/mL) and the CC50 at 48 h [3] was over 100 µM. The CLH [4] was under 0.5 mL/min/g.

Compound `O=S1(=O)C[C@H](O)[C@@H](N2CCC(c3ccccc3Cl)CC2)C1` has an MIC [2] of 0.5 µM (≈ 0.165 µg/mL), a CC50 at 48 h [3] of over 100 µM and a CLH [4] of 73.7 mL/min/g.

Work on `Cc1cccc(NC(=O)COC(=O)CCc2c[nH]c3ccccc23)c1` yielded an MIC90 [5] of under 64 µM.

With `N#C[C@@H]1N[C@@H](CO)[C@H]1c1ccc(-c2ccccc2F)cc1` the “log(activity)” value (Mycobacterium marinum) was 1.5, the MIC90 [6] was 3 µM (≈ 0.847 µg/mL) and the MIC90 [7] was 3 µM (≈ 0.847 µg/mL). For the same compound, the MIC90 [8] was 3 µM (≈ 0.847 µg/mL), the microsomal CLint at 1 µM [9] was 336 µL/min/mg and the CC50 [10] was over 100 µM. For the same compound, the MIC90 [11] was 3 µM (≈ 0.847 µg/mL), the MIC90 [12] was 3 µM (≈ 0.847 µg/mL) and the “fold change (FC)” value [13] was 8. For the same compound, the MIC90 [14] was 1.6 µM (≈ 0.452 µg/mL), the MIC90 [15] was 1.6 µM (≈ 0.452 µg/mL) and the MIC90 [16] was 3 µM (≈ 0.847 µg/mL).

With `CNS(=O)(=O)c1ccc2c(c1)CCN2C(=O)c1ccc(C)s1` the CC50 at 48 h [3] was over 100 µM and the CLH [4] was 27.1 mL/min/g.

`O=S1(=O)C[C@H](O)[C@@H](N2CCN(c3ccccc3Cl)CC2)C1` showed a CC50 at 48 h [3] of over 50 µM and a CLH [4] of 15.7 mL/min/g.

With `O=C(O)CCc1c[nH]c2ccccc12` [INDOLYLPROPIONIC ACID] the MIC50 [17] was 68 µM (≈ 12.9 µg/mL), the “fold change (FC)” value [18] was 7 and the bioavailability [19] was 30 to 33%. The CC50 at 24 h [20] was over 1000 µM.

With `Nc1cccc(F)c1C(=O)O` the “fold change (FC)” value [21] was 10 and the MIC [22] was 5 µM (≈ 0.776 µg/mL).

With `NC(=O)c1ccc(CNC(=O)c2cc(-c3cccc(Cl)c3)on2)cc1` the MIC [23] was 6 µg/mL (≈ 16.9 µM).

For `CNS(=O)(=O)c1ccc2c(c1)CCN2C(=O)c1ccccc1F`, the CC50 at 48 h [3] was over 100 µM and the CLH [4] was 39.5 mL/min/g.

`Nc1ccc(F)cc1C(=O)O` showed an MIC [22] of 5 µM (≈ 0.776 µg/mL).

With `O=C(O)c1ccccc1Nc1ccccc1C(=O)O` the Ki [24] was 1.5 µM.
